One experiment concerns the target T1, IKKb (Homo sapiens, UniProt O14920).
T1 construct: All protein kinases were of human origin and encoded full length proteins, unless indicated otherwise; made in house
T1 sequence (O14920 1-756): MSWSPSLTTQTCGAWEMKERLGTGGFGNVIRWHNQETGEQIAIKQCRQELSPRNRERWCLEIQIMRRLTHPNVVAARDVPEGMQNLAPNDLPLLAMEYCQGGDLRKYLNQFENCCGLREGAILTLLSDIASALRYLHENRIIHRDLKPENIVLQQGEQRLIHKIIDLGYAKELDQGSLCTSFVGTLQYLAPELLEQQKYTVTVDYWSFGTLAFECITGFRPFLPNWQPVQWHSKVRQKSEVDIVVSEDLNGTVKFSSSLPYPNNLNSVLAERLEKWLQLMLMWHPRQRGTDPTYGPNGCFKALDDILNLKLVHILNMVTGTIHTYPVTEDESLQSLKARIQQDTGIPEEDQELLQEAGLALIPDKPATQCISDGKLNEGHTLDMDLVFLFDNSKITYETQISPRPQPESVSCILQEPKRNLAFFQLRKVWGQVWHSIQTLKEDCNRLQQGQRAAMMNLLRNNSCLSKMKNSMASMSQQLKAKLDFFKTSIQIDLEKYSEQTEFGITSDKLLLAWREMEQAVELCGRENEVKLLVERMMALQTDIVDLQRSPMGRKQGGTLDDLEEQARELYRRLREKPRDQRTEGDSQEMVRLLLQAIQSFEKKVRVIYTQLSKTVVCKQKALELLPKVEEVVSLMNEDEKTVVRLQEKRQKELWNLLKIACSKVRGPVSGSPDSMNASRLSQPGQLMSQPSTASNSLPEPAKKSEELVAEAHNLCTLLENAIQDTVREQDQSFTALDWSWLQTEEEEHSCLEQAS
As to the kind of experiment: IKKb protein kinase assay. In kind it is biochemical. The note with it: for remaining activity at 10 µM: 10 μM compound; for residual kinase activity IKKb: 1 μm compound; for remaining activity at 1 µM: 1 μM compound. The text has this:
(§1) All protein kinases were of human origin and encoded full length proteins, unless indicated otherwise. They were either expressed as glutathione S-transferase (GST) fusion proteins in Escherichia Coli or as hexahistidine (His6)-tagged proteins in insect Sf21 cells. GST fusion proteins were purified by affinity chromatography on glutathione-Sepharose, and His6-tagged proteins on nickel/nitriloacetate-agarose. The procedures for expressing some of the protein kinases used herein have been detailed previously.^8,9 The following sections outline the DNA vectors synthesised and the procedures used to express and purifying protein kinases that have not been reported previously.
(§2) All assays (25.5 μl) were carried out at room temperature (21° C.) and were linear with respect to time and enzyme concentration under the conditions used. Assays were performed for 30 min using Multidrop Micro reagent dispensers (Thermo Electron Corporation, Waltham, Mass. 02454, USA) in a 96-well format. The concentration of magnesium acetate in the assays was 10 mM and the [γ-33P] ATP (800 cpm/pmol) was used at 5, 20 or 50 μM as indicated, in order to be at or below the Km for ATP for each enzyme. Protein kinases assayed at 5 μM ATP were: —ERK1, ERK8, PKBα, MARK3, Aurora C. Protein kinases assayed at 20 μM ATP were: —JNK1, PDK1, CHK1, CHK2, CDK2 and Aurora B. Protein kinases assayed at 50 μM ATP were: —MNK2, IKKepsilon and TBK1.
(§3) The assays were initiated with MgATP, stopped by addition of 5 μl of 0.5 M orthophosphoric acid and spotted on to P81 filterplates using a unifilter harvester (PerkinElmer, Boston, Mass. 02118, USA). The IC50 values of inhibitors were determined after carrying out assays at 10 different concentrations of each compound.
(§4) Unless stated otherwise, enzymes were diluted in 50 mM Tris/HCl pH 7.5, 0.1 mM EGTA, 1 mg/ml BSA, 0.1% (v/v) 2-mercaptoethanol and assayed in 50 mM Tris/HCl pH 7.5, 0.1 mM EGTA, 0.1% (v/v) 2-mercaptoethanol.

A further experiment has as its system PHK. The experiment can be described thus: PHK protein kinase assay. The format is biochemical, human. The note with it: for residual kinase activity: PHK.
Text: as §1, §2, §3, §4

A further experiment addresses T2, p38s MAPK (Homo sapiens, UniProt O15264).
T2 construct: All protein kinases were of human origin and encoded full length proteins, unless indicated otherwise; made in house
T2 sequence (O15264 1-365): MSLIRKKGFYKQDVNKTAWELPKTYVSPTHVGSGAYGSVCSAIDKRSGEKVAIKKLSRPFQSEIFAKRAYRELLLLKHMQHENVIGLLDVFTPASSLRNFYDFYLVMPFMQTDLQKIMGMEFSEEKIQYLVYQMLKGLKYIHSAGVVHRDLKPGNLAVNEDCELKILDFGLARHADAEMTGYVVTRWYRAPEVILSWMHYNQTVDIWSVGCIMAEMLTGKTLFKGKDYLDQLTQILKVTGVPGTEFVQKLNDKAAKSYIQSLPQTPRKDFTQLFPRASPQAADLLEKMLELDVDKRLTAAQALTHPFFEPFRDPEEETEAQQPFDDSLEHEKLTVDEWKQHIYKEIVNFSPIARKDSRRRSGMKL
As to the kind of experiment: p38s MAPK protein kinase assay. The format is biochemical. The note with it: for remaining activity at 10 µM: 10 μM compound; for residual kinase activity p38s MAPK: 1 μm compound; for remaining activity at 1 µM: 1 μM compound.
Text: as §1, §2, §3, §4

For a further experiment, the system named is AMPK. As to the kind of experiment: AMPK protein kinase assay. The settings on record: for residual kinase activity: AMPK. The format is biochemical, human.
Text: as §1, §2, §3, §4

The target of another experiment is T3, JNK1 (Homo sapiens, UniProt P45983).
T3 construct: All protein kinases were of human origin and encoded full length proteins, unless indicated otherwise; made in house
T3 sequence (P45983 1-384 isoform P45983-2): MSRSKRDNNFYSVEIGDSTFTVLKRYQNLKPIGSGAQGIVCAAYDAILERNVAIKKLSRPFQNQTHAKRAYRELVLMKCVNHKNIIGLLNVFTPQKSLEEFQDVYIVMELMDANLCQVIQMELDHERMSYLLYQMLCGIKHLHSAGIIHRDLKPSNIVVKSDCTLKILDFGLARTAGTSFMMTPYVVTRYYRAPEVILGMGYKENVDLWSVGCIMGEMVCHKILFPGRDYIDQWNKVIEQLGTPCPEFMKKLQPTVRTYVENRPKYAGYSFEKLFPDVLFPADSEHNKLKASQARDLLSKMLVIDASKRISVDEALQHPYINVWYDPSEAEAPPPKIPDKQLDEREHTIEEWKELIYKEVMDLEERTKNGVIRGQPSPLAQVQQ
The experiment can be described thus: JNK1 protein kinase assay. The format is biochemical. The settings on record: for remaining activity at 10 µM: 10 μM compound; for residual kinase activity JNK1: 1 μm compound; for remaining activity at 1 µM: 1 μM compound.
Text: as §1
(§5) In order to produce activated forms of Aurora B and Aurora C, insect Sf21 cells were incubated for 1 h with the protein phosphatase inhibitor okadaic acid (50 nM). JNK isoforms were activated with MKK4 and MKK7, MNK2 with p38α MAPkinase; PKBα, PKBβ, with PDK1, and ERK1 with MKK1. To activate CDK2, bacterial pellets expressing cyclin A2 and CDK2 were mixed together, lyse and purified on glutathione Sepharose. The GST-tags were removed by cleavage with PreScission protease and the CDK2-cyclin A2 complex purified by chromatography on SP-Sepharose. It was then activated with CAK1/CDK7 followed by chromatography on nickel-nitrilotriacetate agarose to remove CAK1/CDK7, which binds to this column by virtue of its C-terminal His6 tag. All the other protein kinases were active as expressed.
as §2, §3, §4

In the next experiment the target is T4, CDK2-Cyclin A (Homo sapiens, UniProt P24941).
T4 construct: All protein kinases were of human origin and encoded full length proteins, unless indicated otherwise; GST (cleaved yes); made in house; host or cells: E. coli
The experiment can be described thus: CDK2-Cyclin A protein kinase assay. The note with it: for remaining activity at 10 µM: 10 μM compound; for residual kinase activity CDK2-Cyclin A: 1 μm compound; for remaining activity at 1 µM: 1 μM compound. In kind it is biochemical.
Text: as §1
The following proteins were expressed in E. coli: —CHK2[5-543], cyclin-dependent protein kinase 2 (CDK2), MAP kinase-interacting kinase 2 (MNK2), extra-cellular signal-regulated kinase 1 (ERK1).
as §5, §2, §3, §4

Setting [1] is: read-out: residual kinase activity IKKb.
The mark [2] stands for this setting: read-out: residual kinase activity p38s MAPK.
[3] abbreviates: read-out: residual kinase activity JNK1.
[4] abbreviates: read-out: residual kinase activity CDK2-Cyclin A.
Setting [5] is: IKKb, read-out: residual kinase activity.
[6] abbreviates: p38s MAPK, read-out: residual kinase activity.
Where [7] appears, read: JNK1, 20 μM ATP, read-out: residual kinase activity.
The mark [8] stands for this setting: CDK2-Cyclin A, 20 μM ATP, read-out: residual kinase activity.

Counter-ions that a name gives are not always drawn. Like-named read-outs stand apart in the source and are kept apart here.

For the compound `O=C(NCCCNc1nc(Nc2cccc(F)c2)ncc1Br)C1CCC1` [Compound A, cyclobutanecarboxylic acid {3-[5-bromo-2-(3-fluoro-phenylamino)-pyrimidin-4-ylamino]-propyl}-amide, reference compound], the remaining activity at 10 µM at IKKb (setting [1]) was found to be 66%; on p38s MAPK (setting [2]), 15%; on JNK1 (setting [3]), 9%; at CDK2-Cyclin A (setting [4]), 0%. Further, at IKKb, the “residual kinase activity IKKb” value is 93%. The “residual kinase activity PHK” value in the experiment on PHK (10 μM compound) is listed as 0%; in the experiment with PHK (1 μm compound), 7%. In addition, the “residual kinase activity p38s MAPK” value at p38s MAPK stood at 55%. The “residual kinase activity AMPK” value in the experiment with AMPK (10 μM compound) was found to be 2%; in the experiment with AMPK (1 μm compound) it was 4%. Further, the “residual kinase activity JNK1” value on JNK1 was determined as 46%. The “residual kinase activity CDK2-Cyclin A” value at CDK2-Cyclin A is on record as 1%.

`O=C(NCCCNc1nc(Nc2cccc(F)c2)ncc1C1CC1)C1CCC1` [Example 23, Cyclobutanecarboxylic acid {3-[5-cyclopropyl-2-(3-fluoro-phenylamino)-pyrimidin-4-ylamino]-propyl}-amide]: the remaining activity at 10 µM on IKKb (setting [1]) is 80%; at IKKb (setting [5]), 80%; at p38s MAPK (setting [2]), 72%; at p38s MAPK (setting [6]), 72%; at JNK1 (setting [3]), 73%; at JNK1 (setting [7]), 73%. Also, the remaining activity at 10 µM on CDK2-Cyclin A (setting [4]) and on CDK2-Cyclin A (setting [8]) was 2% throughout. Further, the “residual kinase activity IKKb” value on IKKb is reported as 75%. The remaining activity at 1 µM on IKKb (setting [5]) is 75%; on p38s MAPK (setting [6]), 77%; on JNK1 (setting [7]), 91%; on CDK2-Cyclin A (setting [8]) it was 17%. The “residual kinase activity PHK” value in the experiment with PHK (10 μM compound) amounted to 3%; in the experiment on PHK (1 μm compound), 28%. In addition, the residual kinase activity in the experiment with PHK (1 μM compound) was 28%; with PHK (10 μM compound), 3%; in the experiment on AMPK (1 μM compound) it was 45%; in the experiment on AMPK (10 μM compound), 8%. Moreover, on p38s MAPK, the “residual kinase activity p38s MAPK” value is given as 77%. The figures for the “residual kinase activity AMPK” value in the experiment with AMPK (10 μM compound) and with AMPK (1 μm compound) were 8% and 45%, respectively. For the same compound, on JNK1, the “residual kinase activity JNK1” value worked out at 91%. In addition, on CDK2-Cyclin A, the “residual kinase activity CDK2-Cyclin A” value is reported as 17%.

On to `O=C(NCCCNc1nc(Nc2cccc(N3CCCC3=O)c2)ncc1C1CC1)c1cccs1` [Example 47, Thiophene-2-carboxylic acid (3-{5-cyclopropyl-2-[3-(2-oxo-pyrrolidin-1-yl)-phenylamino]-pyrimidin-4-ylamino}-propyl)-amide. Hydrochloride salt], for which the remaining activity at 1 µM at IKKb (setting [5]) came to 91%; at p38s MAPK (setting [6]), 84%; on JNK1 (setting [7]), 92%; on CDK2-Cyclin A (setting [8]) it was 70%. Also, the remaining activity at 10 µM stood at 86% on IKKb (setting [5]), 84% on p38s MAPK (setting [6]), 86% on JNK1 (setting [7]) and 29% on CDK2-Cyclin A (setting [8]). The residual kinase activity is given as 78% in the experiment with PHK (1 μM compound), 24% with PHK (10 μM compound), 77% in the experiment on AMPK (1 μM compound) and 30% with AMPK (10 μM compound).

As to `O=C(NCCCNc1nc(Nc2cccnc2)ncc1C1CC1)c1cccs1` [Example 50, Thiophene-2-carboxylic acid {3-[5-cyclopropyl-2-(pyridin-3-ylamino)-pyrimidin-4-ylamino]-propyl}-amide], the remaining activity at 1 µM on IKKb (setting [5]) is 90%; at p38s MAPK (setting [6]), 79%; at JNK1 (setting [7]) it was 94%; at CDK2-Cyclin A (setting [8]) it was 33%. Besides, the remaining activity at 10 µM at IKKb (setting [5]) was determined as 88%; at p38s MAPK (setting [6]) it was 67%; at JNK1 (setting [7]), 87%; at CDK2-Cyclin A (setting [8]) it was 5%. Further, the residual kinase activity worked out at 64% with PHK (1 μM compound), 15% with PHK (10 μM compound), 76% with AMPK (1 μM compound) and 38% in the experiment on AMPK (10 μM compound).

Values taken from patent US20100056524A1, “Compound” (priority 2008, published 2010).
